Data as given in patent US6384044B1, “Method of treating cancer of the prostate” (priority 1999, dated 2002).

Test system: cancer of the prostate
Test: Case reports: treatment of patients with cancer of the prostate (PSA level, bone scans, X-rays, rectal examination)
Type: in vivo, human
Protocol: Instead, a course of radiation of the involved ribs and lumbar-sacral vertebrae was carried out to reduce pain, following which the patient was referred for further treatment.
They were treated with flutamide plus leuprolide for eight weeks followed by implantation of a radioactive needle into the tumor mass. […] At this point, drug therapy was terminated and local radiation was applied to the lumbar spine to reduce pain. […] Two acquaintances in their sixties had been routinely monitoring their PSA levels every six to twelve months because of their age. […] Both were started immediately on low-dose naltrexone 3 mg/day q.h.s while they considered the desirability of undergoing standard therapies for prostate cancer. This exploration took a period of three months for one and four months for the other with both eventually electing to undergo treatment with flutamide, a testosterone blocking agent.

## O=C1CC[C@@]2(O)[C@H]3Cc4ccc(O)c5c4[C@@]2(CCN3CC2CC2)[C@H]1O5 [naltrexone, Naltrexone]
Example 1: continued naltrexone treatment
  Symptom-free follow-up with normal bone scans and very low PSA readings: 18 months
Example 1: naltrexone 3 mg/day q.h.s., after four months
  Tumor on bone scans: disappeared
Example 1: person, bone metastases, after failed drug therapy and radiation, naltrexone 3 mg/day q.h.s., after four months
  PSA level: less than 1.0
Example 2: naltrexone 3 mg day q.h.s., over five months
  X-rays of the spine: became normal
Example 2: person, lumbar vertebrae lesions, after failed drug therapy and local radiation, naltrexone 3 mg day q.h.s., over five months
  PSA reading: zero
Examples 3 and 4: two men, untreated adenocarcinoma of the prostate, naltrexone 3 mg/day q.h.s. alone for three / four months
  Tumor shrinkage: substantial shrinkage, by more than one-half
